We go through ten molecules from ChEMBL document CHEMBL1201862, “PubChem BioAssay data set” (2004).

Activity calls are given as the source filed them. Bounds are passed on as bounds.

The target in assay [1] is T1, Calpain-2 catalytic subunit (Sus scrofa, UniProt P43367).
T1 sequence (P43367 whole entry): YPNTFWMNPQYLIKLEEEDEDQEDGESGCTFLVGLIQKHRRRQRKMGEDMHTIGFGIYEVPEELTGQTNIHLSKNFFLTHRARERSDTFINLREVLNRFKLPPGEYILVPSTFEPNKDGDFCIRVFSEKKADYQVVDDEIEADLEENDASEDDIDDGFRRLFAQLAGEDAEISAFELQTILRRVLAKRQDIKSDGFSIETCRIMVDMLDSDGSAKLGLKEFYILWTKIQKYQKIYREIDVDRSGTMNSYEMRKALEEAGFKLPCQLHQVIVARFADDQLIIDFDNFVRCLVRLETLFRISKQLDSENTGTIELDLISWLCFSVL
Kind of assay: pig calpain II inhibitor potency, dose response, biochemical, fluorogenic peptide substrate (AID 1420). In kind it is functional.

The target in another assay is Melanocortin receptor 4 (Homo sapiens, UniProt P32245). The class given is functional, cell-based.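 Note: Cell-based assay with luminescence read-out, confirmatory dose-response testing for agonist activity of biased ligands at MC4R; human U2OS cells with tagged receptor and beta-arrestin; potency of agonists that increase receptor coupling to beta-arrestin.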
In assay [2] the target is T2, Orexin receptor type 2 (Homo sapiens, UniProt O43614).
T2 sequence (O43614 whole entry): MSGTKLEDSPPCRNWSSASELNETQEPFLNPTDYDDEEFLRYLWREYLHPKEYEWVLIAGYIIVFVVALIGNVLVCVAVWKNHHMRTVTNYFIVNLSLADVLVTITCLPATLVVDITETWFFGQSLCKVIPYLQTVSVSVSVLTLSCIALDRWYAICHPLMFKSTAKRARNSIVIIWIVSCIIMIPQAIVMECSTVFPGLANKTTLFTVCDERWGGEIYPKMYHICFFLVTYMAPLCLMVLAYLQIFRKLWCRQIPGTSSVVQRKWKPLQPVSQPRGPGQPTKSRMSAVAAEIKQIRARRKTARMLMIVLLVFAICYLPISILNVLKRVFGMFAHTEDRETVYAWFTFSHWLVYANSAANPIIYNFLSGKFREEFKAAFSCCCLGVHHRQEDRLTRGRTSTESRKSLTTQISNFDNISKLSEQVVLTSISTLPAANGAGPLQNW
Kind of assay: Counterscreen assay for antagonists of the orexin 1 receptor (OX1R; HCRTR1): Fluorescence-based cell-based dose response assay for antagonists of the orexin 2 receptor (OX2R; HCRTR2), run by assay provider. In kind it is functional.

Assay [3] deals with T2, Orexin receptor type 2. Description: Counterscreen assay for antagonists of the orexin 1 receptor (OX1R; HCRTR1): Homogeneous Time Resolved Fluorescence (HTRF)-based cell-based dose response assay for antagonists of the orexin 2 receptor (OX2R; HCRTR2), run by assay provider. In kind it is functional. (In general: Counterscreens check selectivity or assay interference.)
Assay [4] is described as follows: Counterscreen for antagonists of the orexin 1 receptor (OX1R; HCRTR1): Fluorescence-based cell-based high throughput dose response assay to identify antagonists of the parental CHO cell line. [Related pubchem assays (depositor defined):AID434989, AID435008, AID463079, AID485270, AID492963, AID492964, AID492965, AID493232, AID504699, AID504701]. In kind it is functional.

Assay [5] concerns the target T3, Orexin/Hypocretin receptor type 1 (Homo sapiens, UniProt O43613).
T3 sequence (O43613 whole entry): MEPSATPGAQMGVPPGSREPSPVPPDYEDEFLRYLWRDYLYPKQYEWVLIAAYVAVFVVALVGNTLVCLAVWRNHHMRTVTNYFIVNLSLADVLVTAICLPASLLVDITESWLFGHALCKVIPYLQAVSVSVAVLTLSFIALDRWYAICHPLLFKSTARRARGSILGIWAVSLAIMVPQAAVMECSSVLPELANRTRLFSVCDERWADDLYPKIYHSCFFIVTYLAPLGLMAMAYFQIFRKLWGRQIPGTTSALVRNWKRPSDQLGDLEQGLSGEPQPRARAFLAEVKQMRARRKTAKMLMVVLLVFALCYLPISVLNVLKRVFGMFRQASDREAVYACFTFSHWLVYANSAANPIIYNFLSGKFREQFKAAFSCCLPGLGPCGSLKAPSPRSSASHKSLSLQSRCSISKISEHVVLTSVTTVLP
Kind of assay: Homogeneous Time Resolved Fluorescence (HTRF)-based cell-based high throughput dose response assay for antagonists of the orexin 1 receptor (OX1R; HCRTR1). [Related pubchem assays (depositor defined):AID434989, AID435008, AID463079, AID485270, AID492963, AID492964, AID492965, AID493232, AID504717, AID504718]. In kind it is functional. For orientation: Time-resolved FRET reads energy transfer from a long-lived donor to a nearby acceptor.

Assay [6] deals with T3, Orexin/Hypocretin receptor type 1. Description: Fluorescence-based cell-based high throughput dose response assay for antagonists of the orexin 1 receptor (OX1R; HCRTR1). [Related pubchem assays (depositor defined):AID434989, AID435008, AID463079, AID485270, AID492963, AID492964, AID492965, AID493232, AID504717, AID504718]. In kind it is functional.
The subject of the next assay is CHO-K1. Description: Counterscreen for antagonists of the orexin 1 receptor (OX1R; HCRTR1): Homogeneous time resolved fluorescence (HTRF)-based cell-based dose response assay to identify antagonists of the parental CHO-K1 cell line. [Related pubchem assays (depositor defined):AID434989, AID435008, AID463079, AID485270, AID492963, AID492964, AID492965, AID493232, AID504699, AID504701]. The class given is functional. As to conditions: Cricetulus griseus.

Assay [7] addresses T4, Serine/threonine-protein phosphatase (Candida dubliniensis (strain CD36 / CBS 7987 / NCPF 3949 / NRRLY-17841) (Yeast), UniProt B9W6M3).
T4 sequence (B9W6M3 whole entry): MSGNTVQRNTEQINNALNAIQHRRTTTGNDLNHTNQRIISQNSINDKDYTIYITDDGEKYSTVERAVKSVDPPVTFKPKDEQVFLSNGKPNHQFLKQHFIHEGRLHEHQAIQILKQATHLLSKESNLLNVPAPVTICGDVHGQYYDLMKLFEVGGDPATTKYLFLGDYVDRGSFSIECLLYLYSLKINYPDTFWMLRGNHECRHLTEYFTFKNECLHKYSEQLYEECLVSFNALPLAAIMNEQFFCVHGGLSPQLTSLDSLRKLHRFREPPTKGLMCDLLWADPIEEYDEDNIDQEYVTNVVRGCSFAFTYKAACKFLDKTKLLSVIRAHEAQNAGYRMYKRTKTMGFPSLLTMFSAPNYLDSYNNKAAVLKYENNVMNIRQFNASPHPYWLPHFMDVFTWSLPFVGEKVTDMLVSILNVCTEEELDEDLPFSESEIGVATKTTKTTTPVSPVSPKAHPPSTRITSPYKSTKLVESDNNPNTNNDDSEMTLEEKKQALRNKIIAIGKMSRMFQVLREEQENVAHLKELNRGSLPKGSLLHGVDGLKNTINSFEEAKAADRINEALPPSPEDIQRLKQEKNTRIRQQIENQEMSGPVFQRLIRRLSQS
Kind of assay: calcineurin pathway inhibitors in yeast reporter, dose response, S. cerevisiae, CDRE-lacZ, luminescence, secondary (AID 2388).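 Note: yeast reporter cells carrying a calcineurin-responsive lacZ construct stimulated with calcium chloride; luminescent beta-galactosidase reporter signal in whole cells rather than isolated phosphatase activity; potency for inhibition where a drop in reporter signal means calcineurin blockade.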 The class given is functional, cell-based.

Assay [8] concerns the target ATP-dependent molecular chaperone HSP82 (Candida albicans (strain WO-1) (Yeast), UniProt C4YTQ8). Description: loss of DOC-induced GRE-beta-galactosidase reporter signal, dose response, Hsp90 inhibitor project, S. cerevisiae, luminescence (AID 2400).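 Note: beta-galactosidase luminescence from glucocorticoid response element reporter as proxy for Hsp90 function; inhibitor potency where signal loss means Hsp90 inhibition.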 The class given is functional, cell-based.
Assay [9] is described as follows: NIH-3T3 fibroblast cytotoxicity, dose response, cytotoxicity control, cell-based, fluorescence, Alamar Blue, secondary assay (AID 2327).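 Note: NIH-3T3 mouse fibroblasts cultured with fluconazole at 8 µg/mL.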 The class given is functional.
Assay [10] is described as follows: C. albicans growth with fluconazole, confirmation, fluorescence, retest (AID 2467). The class given is functional, cell-based.
The target in assay [11] is T5, Polyadenylate-binding protein 1 (Homo sapiens, UniProt P11940). Description: PABP1 MLLE–PAM2 binding inhibitor potency, dose response, biochemical, fluorescence polarization, FITC-PAM2 peptide (AID 602259). As to conditions: read-out: IC50_Mean. The class given is functional.
For assay [12], the target named is T6, Mitochondrial peptide methionine sulfoxide reductase (Bos taurus, UniProt P54149).
T6 sequence (P54149 whole entry): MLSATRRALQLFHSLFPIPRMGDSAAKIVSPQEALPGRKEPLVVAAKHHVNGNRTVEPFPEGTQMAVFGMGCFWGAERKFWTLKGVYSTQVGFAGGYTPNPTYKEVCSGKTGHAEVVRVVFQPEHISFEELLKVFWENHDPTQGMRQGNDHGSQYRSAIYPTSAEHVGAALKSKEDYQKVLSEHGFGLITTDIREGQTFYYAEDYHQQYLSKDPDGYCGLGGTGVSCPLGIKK
Kind of assay: Absorbance-based biochemical high throughput dose response assay for activators of Methionine sulfoxide reductase A (MsrA). In kind it is functional.

The target in assay [13] is T5, Polyadenylate-binding protein 1. Description: PABP1 MLLE–PAM2 interaction inhibitors, dose response, miRNA deadenylation inhibitor project, biochemical, fluorescence polarization, Cy5-PAM2 peptide, secondary (AID 602260). In kind it is functional. To be noted: read-out: IC50_Mean.
Assay [14] has as its target Hepatocyte nuclear factor 4-alpha (Homo sapiens, UniProt P41235). The class given is functional, cell-based.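 Note: biochemical luminescence-based dose-response counterscreen measuring inhibition of HNF4 dimerization, run alongside a screen for blockers of ABHD5–perilipin-5 interaction; split luciferase complementation of HNF4 fusion proteins in cell lysate measuring dimerization.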
In assay [15] the target is Peroxisome proliferator-activated receptor gamma/Nuclear receptor coactivator 2 (Homo sapiens, UniProt P37231). Kind of assay: TR-FRET dose response biochemical High Throughput Screening assay for agonists of the steroid receptor coactivator 2 (SRC-2) recruitment by the peroxisome proliferator-activated receptor gamma (PPAR gamma): non-selective agonists. [Related pubchem assays: 1297, 1032 ]. In kind it is functional.

Assay [16] has as its target Peroxisome proliferator-activated receptor gamma/Nuclear receptor coactivator 3 (Homo sapiens, UniProt P37231). Description: TR-FRET dose response biochemical High Throughput Screening assay for agonists of the steroid receptor coactivator 3 (SRC-3) recruitment by the peroxisome proliferator-activated receptor gamma (PPAR gamma): non-selective agonists. [Related pubchem assays: 1301 (Confirmation screen.), 1048 (Primary screen.)]. In kind it is functional.

The target in assay [17] is Peroxisome proliferator-activated receptor gamma/Nuclear receptor coactivator 1 (Homo sapiens, UniProt P37231). Description: TR-FRET dose response biochemical High Throughput Screening assay for agonists of the steroid receptor coactivator 1 (SRC-1) recruitment by the peroxisome proliferator-activated receptor gamma (PPAR gamma): non-selective agonists. [Related pubchem assays (depositor defined):AID1300, AID1808, AID504735, AID631]. In kind it is protein assay.

The target of another assay is Troponin, cardiac muscle (Homo sapiens, UniProt P19429+P45379+P63316). Kind of assay: Fluorescence-based biochemical high throughput dose response assay for activators of the calcium sensitivity of cardiac Regulated Thin Filaments (RTF). [Related pubchem assays (depositor defined):AID493008, AID493018, AID504382, AID504383]. The class given is protein-complex assay.

Assay [18] concerns the target Ras and Rab interactor 1/Tyrosine-protein kinase ABL1 (Homo sapiens, UniProt P00519+Q13671). In kind it is functional.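 Note: biochemical TR-FRET dose-response test measuring inhibition of binding between Rin1 and Abl proteins.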

Chain of ATP-dependent molecular chaperone HSP82 (C4YTQ8 whole entry): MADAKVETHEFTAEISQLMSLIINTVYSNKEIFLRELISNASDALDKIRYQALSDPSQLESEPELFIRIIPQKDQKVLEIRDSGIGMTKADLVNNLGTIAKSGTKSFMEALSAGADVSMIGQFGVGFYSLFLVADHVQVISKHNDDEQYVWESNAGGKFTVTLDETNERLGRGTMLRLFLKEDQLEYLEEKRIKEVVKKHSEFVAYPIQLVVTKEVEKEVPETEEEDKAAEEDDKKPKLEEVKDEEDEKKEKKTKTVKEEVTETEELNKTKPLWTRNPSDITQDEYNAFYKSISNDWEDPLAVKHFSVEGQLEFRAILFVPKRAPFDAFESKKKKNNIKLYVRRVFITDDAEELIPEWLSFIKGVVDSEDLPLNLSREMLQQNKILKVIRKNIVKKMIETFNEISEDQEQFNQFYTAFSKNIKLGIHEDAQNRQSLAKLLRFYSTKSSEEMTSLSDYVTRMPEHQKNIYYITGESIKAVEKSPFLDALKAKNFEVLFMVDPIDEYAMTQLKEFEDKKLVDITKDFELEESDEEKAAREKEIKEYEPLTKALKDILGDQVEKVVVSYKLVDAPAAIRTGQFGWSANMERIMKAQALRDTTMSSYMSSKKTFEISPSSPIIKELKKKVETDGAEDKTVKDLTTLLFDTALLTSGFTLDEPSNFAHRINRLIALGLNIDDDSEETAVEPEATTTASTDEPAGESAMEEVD
T5 sequence (P11940 whole entry): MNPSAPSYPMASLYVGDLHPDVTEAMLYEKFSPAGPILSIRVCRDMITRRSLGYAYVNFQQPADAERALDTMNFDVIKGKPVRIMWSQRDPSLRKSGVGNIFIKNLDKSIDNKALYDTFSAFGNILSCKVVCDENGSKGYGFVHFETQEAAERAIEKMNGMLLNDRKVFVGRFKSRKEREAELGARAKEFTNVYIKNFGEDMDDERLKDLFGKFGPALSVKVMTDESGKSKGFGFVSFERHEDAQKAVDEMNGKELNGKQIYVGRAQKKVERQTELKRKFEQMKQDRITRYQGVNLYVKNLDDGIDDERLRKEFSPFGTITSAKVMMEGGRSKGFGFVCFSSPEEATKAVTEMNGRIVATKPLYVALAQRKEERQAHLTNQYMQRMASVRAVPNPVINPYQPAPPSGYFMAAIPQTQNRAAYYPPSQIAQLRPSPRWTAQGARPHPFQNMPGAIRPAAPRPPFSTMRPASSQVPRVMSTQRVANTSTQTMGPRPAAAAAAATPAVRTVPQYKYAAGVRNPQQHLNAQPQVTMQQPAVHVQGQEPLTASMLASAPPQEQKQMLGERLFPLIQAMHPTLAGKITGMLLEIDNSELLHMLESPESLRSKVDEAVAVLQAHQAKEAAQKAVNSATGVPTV
Chain of Peroxisome proliferator-activated receptor gamma/Nuclear receptor coactivator 1 (P37231 whole entry): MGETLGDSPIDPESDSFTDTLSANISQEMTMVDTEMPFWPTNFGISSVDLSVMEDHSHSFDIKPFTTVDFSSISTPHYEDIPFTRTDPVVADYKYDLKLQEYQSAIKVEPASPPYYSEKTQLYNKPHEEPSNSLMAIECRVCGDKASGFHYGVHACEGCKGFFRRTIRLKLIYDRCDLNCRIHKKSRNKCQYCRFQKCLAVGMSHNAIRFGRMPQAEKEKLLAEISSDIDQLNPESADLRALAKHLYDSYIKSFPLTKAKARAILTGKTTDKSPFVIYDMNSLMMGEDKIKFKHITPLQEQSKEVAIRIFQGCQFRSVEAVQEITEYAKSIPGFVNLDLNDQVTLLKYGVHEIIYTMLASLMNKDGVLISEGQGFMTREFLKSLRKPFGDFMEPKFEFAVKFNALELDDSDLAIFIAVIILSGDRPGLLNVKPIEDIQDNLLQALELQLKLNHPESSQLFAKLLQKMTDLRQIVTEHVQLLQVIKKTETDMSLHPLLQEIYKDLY
Chain of Peroxisome proliferator-activated receptor gamma/Nuclear receptor coactivator 1 (Q15788 whole entry, further chain): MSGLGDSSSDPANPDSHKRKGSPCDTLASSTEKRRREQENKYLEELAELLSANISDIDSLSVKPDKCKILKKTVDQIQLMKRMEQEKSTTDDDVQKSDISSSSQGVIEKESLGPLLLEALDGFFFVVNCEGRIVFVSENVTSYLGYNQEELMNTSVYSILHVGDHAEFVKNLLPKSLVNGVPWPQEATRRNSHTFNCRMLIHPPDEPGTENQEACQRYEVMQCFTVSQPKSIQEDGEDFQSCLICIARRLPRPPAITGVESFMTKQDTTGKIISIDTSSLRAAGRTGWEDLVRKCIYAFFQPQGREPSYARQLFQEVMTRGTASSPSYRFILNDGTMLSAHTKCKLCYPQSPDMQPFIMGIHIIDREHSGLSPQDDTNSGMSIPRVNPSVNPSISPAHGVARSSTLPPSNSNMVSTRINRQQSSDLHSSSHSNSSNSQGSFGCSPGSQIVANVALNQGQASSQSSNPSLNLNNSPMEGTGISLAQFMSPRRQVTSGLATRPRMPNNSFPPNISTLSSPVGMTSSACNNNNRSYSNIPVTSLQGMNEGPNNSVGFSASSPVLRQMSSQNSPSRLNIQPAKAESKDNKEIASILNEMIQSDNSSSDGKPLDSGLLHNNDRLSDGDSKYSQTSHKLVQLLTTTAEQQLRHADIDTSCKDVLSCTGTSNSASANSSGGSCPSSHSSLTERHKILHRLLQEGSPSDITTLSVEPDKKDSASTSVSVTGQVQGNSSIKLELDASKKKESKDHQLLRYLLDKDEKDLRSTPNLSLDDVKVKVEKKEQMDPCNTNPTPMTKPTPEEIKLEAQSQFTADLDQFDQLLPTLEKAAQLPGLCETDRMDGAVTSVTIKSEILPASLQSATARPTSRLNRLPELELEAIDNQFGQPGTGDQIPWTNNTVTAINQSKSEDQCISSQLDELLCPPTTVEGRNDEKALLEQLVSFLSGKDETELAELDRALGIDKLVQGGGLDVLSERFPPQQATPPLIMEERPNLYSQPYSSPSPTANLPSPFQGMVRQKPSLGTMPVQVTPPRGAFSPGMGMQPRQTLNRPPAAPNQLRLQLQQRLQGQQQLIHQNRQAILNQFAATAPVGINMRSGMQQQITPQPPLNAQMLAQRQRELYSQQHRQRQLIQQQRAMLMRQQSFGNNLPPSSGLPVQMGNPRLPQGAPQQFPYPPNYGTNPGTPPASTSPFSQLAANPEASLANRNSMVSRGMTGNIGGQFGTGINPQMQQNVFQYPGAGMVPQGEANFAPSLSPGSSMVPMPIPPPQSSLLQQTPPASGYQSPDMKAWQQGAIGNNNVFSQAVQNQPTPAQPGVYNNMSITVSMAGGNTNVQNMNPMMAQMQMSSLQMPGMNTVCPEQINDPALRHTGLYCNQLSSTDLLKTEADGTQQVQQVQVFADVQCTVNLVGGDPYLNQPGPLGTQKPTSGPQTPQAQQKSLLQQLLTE
Chain of Melanocortin receptor 4 (P32245 whole entry): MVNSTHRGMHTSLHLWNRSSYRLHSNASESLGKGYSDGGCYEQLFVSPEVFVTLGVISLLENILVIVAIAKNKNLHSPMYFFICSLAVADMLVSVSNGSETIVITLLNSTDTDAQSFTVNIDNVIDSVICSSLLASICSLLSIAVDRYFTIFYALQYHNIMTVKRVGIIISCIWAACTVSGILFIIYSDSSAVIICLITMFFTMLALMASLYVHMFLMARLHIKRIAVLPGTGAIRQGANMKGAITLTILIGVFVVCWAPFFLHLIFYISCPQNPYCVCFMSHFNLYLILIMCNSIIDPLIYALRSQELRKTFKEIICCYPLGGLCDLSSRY
Chain of Hepatocyte nuclear factor 4-alpha (P41235 whole entry, the tested form may be a part): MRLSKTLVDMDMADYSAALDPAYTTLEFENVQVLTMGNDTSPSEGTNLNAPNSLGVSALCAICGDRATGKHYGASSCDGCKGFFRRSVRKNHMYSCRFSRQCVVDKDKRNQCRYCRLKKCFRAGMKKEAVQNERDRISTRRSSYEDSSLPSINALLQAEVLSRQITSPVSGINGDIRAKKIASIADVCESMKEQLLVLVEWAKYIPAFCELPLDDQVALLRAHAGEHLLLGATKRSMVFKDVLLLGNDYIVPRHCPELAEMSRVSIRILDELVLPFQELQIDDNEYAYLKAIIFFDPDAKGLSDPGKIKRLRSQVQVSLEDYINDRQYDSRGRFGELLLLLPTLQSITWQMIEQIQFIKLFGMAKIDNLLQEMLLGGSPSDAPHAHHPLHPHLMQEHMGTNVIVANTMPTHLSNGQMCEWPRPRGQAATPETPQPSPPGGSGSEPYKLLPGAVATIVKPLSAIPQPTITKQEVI

What is called EC50 is the concentration that produces a half-maximal response. As to `COc1cc(NS(=O)(=O)c2ccc(NC(=S)NC(=O)c3sc4ccccc4c3Cl)cc2)ncn1`, the IC50 in [1] is 11.4 µM (not active). In addition, the EC50 at Melanocortin receptor 4 was > 89.2 µM (inactive).

For the molecule `Cc1cc(Br)cc2c1NC(=O)C2(c1c(C)n(C)n(-c2ccccc2)c1=O)c1c(C)n(C)n(-c2ccccc2)c1=O`, the IC50 is > 88.8 µM (inactive) on Orexin receptor type 2 [2]; 0.99 µM (active) at Orexin receptor type 2 [3]; > 49.8 µM (inactive) in assay [4]; 1.28 µM (active) in assay [5]; 6.52 µM (active) in assay [6]; > 66.2 µM (inactive) in the assay on CHO-K1.

`CCCCCCSc1nnc2nc(O)cc(N)n12`: the EC50 was > 180 µM (inactive) in assay [7], > 150 µM (inactive) in assay [8], 79.9 µM (active) in [9] and 0.52 µM (active) in [10].

For `O=c1[nH]c(=S)[nH]cc1Oc1ccc(Cl)cc1Cl`, the IC50 in assay [11] and in assay [13] was > 66 µM (inactive) each time. For the same molecule, the EC50 in assay [12] was > 104 µM (inactive).

Regarding `O=C(Cn1c(=O)n(Cc2ccco2)c(=O)c2c3c(sc21)CCCC3)Nc1ccccc1`, the IC50 in [14] was 22.2 µM (inactive).

For the molecule `Cc1c(O)c2c3c(cccc3c1O)C(=O)N(c1ccccc1)C2=O`, the EC50 in assay [7] is > 180 µM (inactive); in [8], 82.8 µM (active); in [9], > 150 µM (inactive); in assay [15] it was > 79.4 µM (not active); in [16], > 79.4 µM (not active); in [10], 0.492 µM (active). For the same molecule, the EC50 in assay [17] was > 79.4 µM (inactive); at Troponin, cardiac muscle, 2.9 µM (active).

`Cc1nc2c(-c3ccccc3)c(C)nn2c(N)c1-c1ccccc1`: the IC50 was 24.9 µM (inactive) at Orexin receptor type 2 [2]; > 50 µM (inactive) on Orexin receptor type 2 [3]; 49 µM (inactive) in [4]; 5.34 µM (active) in [5]; 13.3 µM (inactive) in [6]; > 66.2 µM (inactive) in the assay with CHO-K1.

Regarding `O=C1C(Cl)=C(NCc2ccco2)C(=O)c2ccccc21`, the EC50 in [12] is > 104 µM (inactive).

As for `CN(CCc1ccccc1)C(=O)c1ccc(NC(=O)Cc2ccc(NC(=O)C3CCN(C(=O)C4CCCCC4)CC3)cc2)cc1`, in assay [18], the IC50 was 11.2 µM (inactive).

On to `Cn1c(N)c(C(=O)N/N=C/c2ccccc2)sc1=S`, for which the IC50 on Orexin receptor type 2 [2] is > 88.8 µM (inactive); at Orexin receptor type 2 [3], > 50 µM (inactive); in [4], > 49.7 µM (inactive); in [5] it was 1.59 µM (active); in [6] it was 2.75 µM (active); with CHO-K1, > 66.2 µM (inactive).
